Experimental data: ChEMBL document CHEMBL1201862, “PubChem BioAssay data set” (2004)
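Cultured in 96-well plates, cells were exposed to test compound for 48 hours across five concentrations. GI50 = concentration required for 50% inhibition of growth.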 Activity calls are given as the source filed them. Cut-off read from the data, not from the text of the source: active = GI50 up to about 1.1 µM and inactive = higher.

What was measured:
Experiment in all cases: NCI tumour cell line growth inhibition, 48 h
SF-295 = tested on: SF-295
COLO 205 = tested on: COLO 205
UACC-62 = tested on: UACC-62
MOLT-4 = tested on: MOLT-4
OVCAR-3 = tested on: OVCAR-3
SF-268 = tested on: SF-268
CCRF-CEM = tested on: CCRF-CEM
OVCAR-8 = tested on: OVCAR-8
NCI-H460 = tested on: NCI-H460
A549 = tested on: A549
SK-MEL-28 = tested on: SK-MEL-28
UACC-257 = tested on: UACC-257
SN12C = tested on: SN12C
RPMI-8226 = tested on: RPMI-8226
LOX IMVI = tested on: LOX IMVI
NCI/ADR-RES = tested on: NCI/ADR-RES
HL-60 = tested on: HL-60
MDA-MB-435 = tested on: MDA-MB-435
SK-MEL-2 = tested on: SK-MEL-2
MDA-N = tested on: MDA-N
HCC 2998 = tested on: HCC 2998
HCT-116 = tested on: HCT-116
OVCAR-5 = tested on: OVCAR-5
MDA-MB-231 = tested on: MDA-MB-231
CAKI-1 = tested on: CAKI-1
NCI-H23 = tested on: NCI-H23
SK-OV-3 = tested on: SK-OV-3
U-251 = tested on: U-251
BT-549 = tested on: BT-549
SK-MEL-5 = tested on: SK-MEL-5
DU-145 = tested on: DU-145
PC-3 = tested on: PC-3
HOP-92 = tested on: HOP-92
IGROV-1 = tested on: IGROV-1
KM12 = tested on: KM12
K562 = tested on: K562
RXF 393 = tested on: RXF 393
SR = tested on: SR
EKVX = tested on: EKVX
A498 = tested on: A498
UO-31 = tested on: UO-31
786-0 = tested on: 786-0
HT-29 = tested on: HT-29
SNB-19 = tested on: SNB-19
NCI-H522 = tested on: NCI-H522
OVCAR-4 = tested on: OVCAR-4
M14 = tested on: M14
Malme-3M = tested on: Malme-3M
SF-539 = tested on: SF-539
HCT-15 = tested on: HCT-15
NCI-H226 = tested on: NCI-H226
TK-10 = tested on: TK-10
ACHN = tested on: ACHN
Hs-578T = tested on: Hs-578T
MCF7 = tested on: MCF7
T47D = tested on: T47D
SNB-75 = tested on: SNB-75
SW-620 = tested on: SW-620
HOP-62 = tested on: HOP-62
KM-20L2 = tested on: KM-20L2
SNB-78 = tested on: SNB-78
DMS-114 = tested on: DMS-114
LXFL 529 = tested on: LXFL 529

With `COc1ccc(N2N=NN(C(C)C)/C2=C(/Cl)c2nnnn2-c2ccc(OC)cc2)cc1` the GI50 (SF-295) was 16.6 µM (inactive), the GI50 (COLO 205) was 3.72 µM (inactive) and the GI50 (UACC-62) was 14.4 µM (inactive). The GI50 (MOLT-4) was 4.61 µM (inactive), the GI50 (OVCAR-3) was 9.62 µM (inactive) and the GI50 (SF-268) was 16.2 µM (inactive). For the same compound, the GI50 (CCRF-CEM) was 1.83 µM (inactive), the GI50 (OVCAR-8) was 6.11 µM (inactive) and the GI50 (NCI-H460) was 18.7 µM (inactive). The GI50 (A549) was 17.8 µM (inactive), the GI50 (SK-MEL-28) was 15.5 µM (inactive) and the GI50 (UACC-257) was 15.3 µM (inactive). The GI50 (SN12C) was 14.3 µM (inactive), the GI50 (RPMI-8226) was 8.99 µM (inactive) and the GI50 (LOX IMVI) was 2 µM (inactive). The GI50 (NCI/ADR-RES) was 27.7 µM (inactive), the GI50 (HL-60) was 2.45 µM (inactive) and the GI50 (MDA-MB-435) was 12.6 µM (inactive). The GI50 (SK-MEL-2) was 13.4 µM (inactive), the GI50 (MDA-N) was 13.6 µM (inactive) and the GI50 (HCC 2998) was 19.5 µM (inactive). The GI50 (HCT-116) was 5 µM (inactive), the GI50 (OVCAR-5) was 13.6 µM (inactive) and the GI50 (MDA-MB-231) was 9.14 µM (inactive). For the same compound, the GI50 (CAKI-1) was 1.75 µM (inactive), the GI50 (NCI-H23) was 16.8 µM (inactive) and the GI50 (SK-OV-3) was 18.2 µM (inactive). The GI50 (U-251) was 17.5 µM (inactive), the GI50 (BT-549) was 15.6 µM (inactive) and the GI50 (SK-MEL-5) was 15.2 µM (inactive). For the same compound, the GI50 (DU-145) was 8.11 µM (inactive), the GI50 (PC-3) was 14.6 µM (inactive) and the GI50 (HOP-92) was 2.25 µM (inactive). For the same compound, the GI50 (IGROV-1) was 14.9 µM (inactive), the GI50 (KM12) was 17.1 µM (inactive) and the GI50 (K562) was 3.9 µM (inactive). The GI50 (RXF 393) was 13.8 µM (inactive), the GI50 (SR) was 2.98 µM (inactive) and the GI50 (EKVX) was 18.2 µM (inactive). The GI50 (A498) was 16 µM (inactive), the GI50 (UO-31) was 5.97 µM (inactive) and the GI50 (786-0) was 2.76 µM (inactive). The GI50 (HT-29) was 10.2 µM (inactive), the GI50 (SNB-19) was 16 µM (inactive) and the GI50 (NCI-H522) was 2.76 µM (inactive). For the same compound, the GI50 (OVCAR-4) was 5.01 µM (inactive), the GI50 (M14) was 8.81 µM (inactive) and the GI50 (Malme-3M) was 11.4 µM (inactive). The GI50 (SF-539) was 18.8 µM (inactive), the GI50 (HCT-15) was 15.8 µM and the GI50 (NCI-H226) was 20.2 µM (inactive). For the same compound, the GI50 (TK-10) was 16.2 µM (inactive), the GI50 (ACHN) was 16.6 µM (inactive) and the GI50 (Hs-578T) was 22.1 µM (inactive). For the same compound, the GI50 (MCF7) was 9.46 µM (inactive), the GI50 (T47D) was 4.55 µM (inactive) and the GI50 (SNB-75) was 13 µM (inactive). For the same compound, the GI50 (SW-620) was 1.82 µM (inactive) and the GI50 (HOP-62) was 21 µM (inactive).

For `Cc1ccccc1C(=O)C1CCCCC1O` (stereo not drawn), the GI50 (UACC-62) was > 100 µM (inactive), the GI50 (MOLT-4) was > 100 µM (inactive) and the GI50 (OVCAR-3) was > 100 µM (inactive). For the same compound, the GI50 (SF-268) was > 100 µM (inactive), the GI50 (KM-20L2) was > 100 µM (inactive) and the GI50 (A549) was > 100 µM (inactive). For the same compound, the GI50 (SN12C) was > 100 µM (inactive), the GI50 (LOX IMVI) was > 100 µM (inactive) and the GI50 (HL-60) was > 100 µM (inactive). For the same compound, the GI50 (SK-MEL-2) was > 100 µM (inactive), the GI50 (HCC 2998) was > 100 µM (inactive) and the GI50 (HCT-116) was > 100 µM (inactive). For the same compound, the GI50 (OVCAR-5) was > 100 µM (inactive), the GI50 (CAKI-1) was > 100 µM (inactive) and the GI50 (NCI-H23) was > 100 µM (inactive). For the same compound, the GI50 (SK-OV-3) was > 100 µM (inactive), the GI50 (U-251) was > 100 µM (inactive) and the GI50 (SK-MEL-5) was > 100 µM (inactive). The GI50 (SNB-78) was 23.8 µM (inactive), the GI50 (HOP-92) was > 100 µM (inactive) and the GI50 (IGROV-1) was > 100 µM (inactive). For the same compound, the GI50 (KM12) was > 100 µM (inactive), the GI50 (K562) was > 100 µM (inactive) and the GI50 (RXF 393) was > 100 µM (inactive). The GI50 (EKVX) was > 100 µM (inactive), the GI50 (DMS-114) was > 100 µM (inactive) and the GI50 (UO-31) was > 100 µM (inactive). The GI50 (786-0) was > 100 µM (inactive), the GI50 (SNB-19) was > 100 µM (inactive) and the GI50 (OVCAR-4) was > 100 µM (inactive). For the same compound, the GI50 (M14) was > 100 µM (inactive), the GI50 (Malme-3M) was > 100 µM (inactive) and the GI50 (HCT-15) was greater than 100 µM. For the same compound, the GI50 (NCI-H226) was > 100 µM (inactive), the GI50 (LXFL 529) was > 100 µM (inactive) and the GI50 (TK-10) was > 100 µM (inactive). For the same compound, the GI50 (ACHN) was > 100 µM (inactive), the GI50 (SNB-75) was > 100 µM (inactive) and the GI50 (SW-620) was > 100 µM (inactive). The GI50 (HOP-62) was > 100 µM (inactive).

`COC(=O)c1c2c(cc3c1CC1(C3)Cc3cc4c(c(C(C)=O)c3C1)CCC4)C=CC2` (stereo not drawn) was tested, and the GI50 (SF-295) was > 31.6 µM (inactive), the GI50 (COLO 205) was > 31.6 µM (inactive) and the GI50 (UACC-62) was 30.7 µM (inactive). The GI50 (MOLT-4) was > 31.6 µM (inactive), the GI50 (OVCAR-3) was > 31.6 µM (inactive) and the GI50 (SF-268) was > 31.6 µM (inactive). The GI50 (CCRF-CEM) was 20.7 µM (inactive), the GI50 (OVCAR-8) was > 31.6 µM (inactive) and the GI50 (NCI-H460) was > 31.6 µM (inactive). The GI50 (A549) was > 31.6 µM (inactive), the GI50 (SK-MEL-28) was 29.4 µM (inactive) and the GI50 (UACC-257) was > 31.6 µM (inactive). The GI50 (SN12C) was > 31.6 µM (inactive), the GI50 (RPMI-8226) was 14.2 µM (inactive) and the GI50 (LOX IMVI) was > 10 µM (inactive). For the same compound, the GI50 (NCI/ADR-RES) was > 31.6 µM (inactive), the GI50 (HL-60) was 16.7 µM (inactive) and the GI50 (MDA-MB-435) was 30.5 µM (inactive). The GI50 (SK-MEL-2) was > 31.6 µM (inactive), the GI50 (MDA-N) was > 10 µM (inactive) and the GI50 (HCC 2998) was > 10 µM (inactive). The GI50 (HCT-116) was 27.9 µM (inactive), the GI50 (OVCAR-5) was > 31.6 µM (inactive) and the GI50 (MDA-MB-231) was > 20.7 µM (inactive). The GI50 (CAKI-1) was 44.2 µM (inactive), the GI50 (NCI-H23) was > 31.6 µM (inactive) and the GI50 (SK-OV-3) was > 10 µM (inactive). The GI50 (U-251) was > 31.6 µM (inactive), the GI50 (BT-549) was > 31.6 µM (inactive) and the GI50 (SK-MEL-5) was 18.6 µM (inactive). The GI50 (DU-145) was > 31.6 µM (inactive), the GI50 (PC-3) was > 31.6 µM (inactive) and the GI50 (HOP-92) was > 31.6 µM (inactive). For the same compound, the GI50 (IGROV-1) was > 31.6 µM (inactive), the GI50 (KM12) was > 31.6 µM (inactive) and the GI50 (K562) was 27 µM (inactive). The GI50 (RXF 393) was > 10 µM (inactive), the GI50 (SR) was 20.8 µM (inactive) and the GI50 (EKVX) was > 31.6 µM (inactive). For the same compound, the GI50 (A498) was > 31.6 µM (inactive), the GI50 (UO-31) was 24.3 µM (inactive) and the GI50 (786-0) was > 31.6 µM (inactive). The GI50 (HT-29) was 18.7 µM (inactive), the GI50 (SNB-19) was > 31.6 µM (inactive) and the GI50 (NCI-H522) was 27.6 µM (inactive). For the same compound, the GI50 (OVCAR-4) was 24.5 µM (inactive), the GI50 (M14) was > 31.6 µM (inactive) and the GI50 (Malme-3M) was > 10 µM (inactive). The GI50 (SF-539) was > 31.6 µM (inactive), the GI50 (HCT-15) was 18.3 µM and the GI50 (NCI-H226) was > 31.6 µM (inactive). For the same compound, the GI50 (TK-10) was > 31.6 µM (inactive), the GI50 (ACHN) was 10.2 µM (inactive) and the GI50 (Hs-578T) was > 31.6 µM (inactive). For the same compound, the GI50 (MCF7) was 22.2 µM (inactive), the GI50 (T47D) was 5.69 µM (inactive) and the GI50 (SNB-75) was 4.6 µM (inactive). The GI50 (SW-620) was > 10 µM (inactive) and the GI50 (HOP-62) was > 31.6 µM (inactive).
